From patent US20220177453A1, “CRYSTALLIZATION OF SMAC MIMIC USED AS IAP INHIBITOR AND PREPARATION METHOD THEREOF” (CHIA TAI TIANQING PHARMACEUTICAL GROUP CO., LTD., priority 2019, published 2022)

Legend:
[1] = Hygroscopicity study (DVS); assay type: physicochemical
Procedure: Instrument model: SMS DVS Advantage
Test conditions: crystalline form A of the compound of formula (I) (10-15 mg) was placed in a DVS sample tray for testing.
The DVS parameters are as follows: • Temperature: 25° C. • Balancing: dm/dt=0.01%/min (shortest: 10 min, longest: 180 min) • Drying: drying at 0% RH for 120 min • RH (%) measurement gradient: 10% • RH (%) measurement gradient range: 0%-90%-0%

[2] = Influencing factor (high temperature, high humidity) and irradiation stability tests; assay type: physicochemical
[3] = Long-term accelerated stability test; assay type: physicochemical
Procedure: Long-term accelerated test: 22 parts of crystalline form A of the compound of formula (I) each containing 1 50 g were prepared. The samples were separately put into a double-layer LDPE bag with each layer of LDPE bag sealed separately. The bag was then put into an aluminum foil bag for heat sealing. At inspection time points, the corresponding test samples were taken out, covered with bottle caps. 0-day samples were thawed to room temperature and directly analyzed. Approximately 10 mg of the test article was subjected to XRPD. The compounds were placed in the following conditions and samples were taken at different time points for determining their properties, XRPD pattern, content and related substances.

cIAP1 BIR3 = target: T1, cIAP1 BIR3 (Homo sapiens, UniProt Q13490); experiment: cIAP1 BIR3 fluorescence polarization binding assay; settings: 5 nM probe, 20 nM cIAP1 BIR3
T1 construct: isolated BIR3 domain of human cIAP1 (amino acids 258-363); cIAP1; His; GST; purchased RBC APT-11-370; host or cells: E. coli
Excerpt: (§1) Buffer system (a buffer for cIAP1 BIR3 or XIAP BIR3): 0.1 mollL potassium phosphate, pH 7.5, 0.1% bovine serum albumin, 0.005% Triton X-100 and 1% dimethyl sulfoxide.
(§2) Probe: ARPFAQ-K(5-FAM)-NH2.
cIAP1-BIR3-his: RBC (Cat# APT-11-370), isolated BIR3 domain of human cIAP1 (amino acids 258-363; cIAP1
BIR3) expressed by E. coli as GST-fusion protein.
(§3) XIAP-BIR3-his: RBC (Cat# APT-11-374), isolated BIR3 domain of XIAP (amino acids 255-356; XIAP BIR3) expressed by E. coli as GST-fusion protein. Condition: 5 nM ARPFAQ-K(5-FAM)-NH2, 20 nM cIAP1 BIR3 and 30 nM XIAP BIR3.
(§4) Firstly, fresh buffer of cIAP1 BIR3 or XIAP BIR3 was prepared, and mixed with 2 folds of cIAP1 BIR3 or XIAP BIR3 solution. A solution of test compound completely dissolved in 100% DMSO via ultrasonication was added to the buffer containing cIAP1 BIR3 or XIAP BIR3. The mixture was added with 2 folds of probes, mixed and incubated for 60 min in the dark at room temperature. Fluorescence polarization was measured and mP value was calculated, finally giving an IC50 value.

XIAP BIR3 = target: T2, XIAP BIR3 (Homo sapiens, UniProt P98170); experiment: XIAP BIR3 fluorescence polarization binding assay; settings: 5 nM probe, 30 nM XIAP BIR3
T2 construct: isolated BIR3 domain of XIAP (amino acids 255-356; XIAP BIR3); His; GST; purchased RBC APT-11-374; host or cells: E. coli
Procedure: as §1, §2, §3, §4

[4] = system: MDA-MB-231 triple negative breast cancer CDX; experiment: In vivo efficacy study 1, MDA-MB-231 triple negative breast cancer CDX model; set-up: species or system BALB/c nude mice
Procedure: (§5) In vivo efficacy study was conducted on BALB/c nude mice by subcutaneously implanting human tumor cell line-derived xenograft (CDX) from MDA-MB-231 triple negative breast cancer patients
(§6) BALB/c nude mice, female, aged 6-8 weeks, about 18-22 g, were kept in a special pathogen-free environment and in separate ventilated cages (3 mice per cage). All cages, bedding and water were disinfected prior to use. All animals had free access to standard certified commercial laboratory diets. 48 mice were purchased from Shanghai BK Laboratory Animal Co., LTD. for the study. Each mouse was implanted subcutaneously in the right flank with cancer cells (10×10^6 cells in 0.2 mL of phosphate buffered saline) for tumor growth. The mice were administered when the mean tumor volume reached about 147 mm^3. The test compounds were administered orally at a daily dose of 30 mg/kg. Tumor volume was measured every 3 days with a two-dimensional caliper, and the volume was measured in mm^3 and calculated according to the following formula: V=0.5×a×b^2, where a and b are the long and short diameters, respectively, of the tumor. Anti-tumor efficacy was determined by dividing the mean tumor increase volume of compound-treated animals by the mean tumor increase volume of untreated animals

[5] = system: MDA-MB-231 triple negative breast cancer CDX; experiment: In vivo efficacy study 2, MDA-MB-231 triple negative breast cancer CDX model; set-up: species or system BALB/c nude mice
Procedure: as §5
as §6, with “tumor” for “cancer”, “(10×10^6” for “(10×10^6 cells”, “buffer)” for “buffered saline)”, “110” for “147”

T1 sequence (Q13490 258-363): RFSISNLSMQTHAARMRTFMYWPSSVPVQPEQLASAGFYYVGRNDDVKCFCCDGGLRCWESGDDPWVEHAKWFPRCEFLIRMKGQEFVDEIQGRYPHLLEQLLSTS
T2 sequence (P98170 255-356): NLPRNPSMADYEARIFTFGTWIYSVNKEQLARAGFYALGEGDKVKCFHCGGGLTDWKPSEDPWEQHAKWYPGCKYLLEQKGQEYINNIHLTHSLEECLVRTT

## CN[C@@H](C)C(=O)N[C@H](C(=O)N1CCC[C@H]1Cn1cc(C(C)=O)c2cc(Cl)ccc21)C1CCCCC1
[1]; 25° C. and 80% RH
  hygroscopic weight gain: 0.72%
[1]; weight gain at 25° C./80% RH
  Classification of hygroscopicity: slightly hygroscopic
[2]; 25° C.-92.5% RH-5 days
  Content of crystalline form A (%): 99.1%
  Impurity content (%): 1.16%
[2]; 25° C.-92.5% RH-10 days
  Content of crystalline form A (%): 98.8%
  Impurity content (%): 1.13%
[2]; 25° C.-92.5% RH-30 days
  Content of crystalline form A (%): 99.2%
  Impurity content (%): 1.19%
[2]; 60° C.-5 days
  Content of crystalline form A (%): 99%
  Impurity content (%): 1.16%
[2]; 60° C.-10 days
  Content of crystalline form A (%): 98.2%
  Impurity content (%): 1.14%
[2]; 60° C.-30 days
  Content of crystalline form A (%): 99.1%
  Impurity content (%): 1.19%
[2]; Day 0
  Content of crystalline form A (%): 98.2%
  Impurity content (%): 1.19%
[2]; Irradiation-5 days
  Content of crystalline form A (%): 97.8%
  Impurity content (%): 1.12%
[2]; Irradiation-10 days
  Content of crystalline form A (%): 99.3%
  Impurity content (%): 1.13%
[2]; the various test conditions of Tables 4 and 5
  Crystalline form stability by XRPD versus day 0: stable
[3]; 25° C.-60% RH-3 months
  Content of crystalline form A (%): 98%
  Impurity content (%): 1.16%
[3]; 25° C.-60% RH-6 months
  Content of crystalline form A (%): 99.5%
  Impurity content (%): 1.12%
[3]; 25° C.-60% RH-9 months
  Content of crystalline form A (%): 98.2%
  Impurity content (%): 1.22%
[3]; 25° C.-60% RH-12 months
  Content of crystalline form A (%): 100.2%
  Impurity content (%): 1.09%
[3]; 40° C.-75% RH-1 month
  Content of crystalline form A (%): 99.3%
  Impurity content (%): 1.2%
[3]; 40° C.-75% RH-2 months
  Content of crystalline form A (%): 98.1%
  Impurity content (%): 1.19%
[3]; 40° C.-75% RH-3 months
  Content of crystalline form A (%): 97.8%
  Impurity content (%): 1.13%
[3]; 40° C.-75% RH-6 months
  Content of crystalline form A (%): 98.5%
  Impurity content (%): 1.12%
[3]; Day 0
  Content of crystalline form A (%): 98.2%
  Impurity content (%): 1.19%

## CN[C@@H](C)C(=O)N[C@H](C(=O)N1CCC[C@H]1Cn1cc(C(C)=O)c2cc(Cl)ccc21)C1CCCCC1 [Compound of formula (I)]
cIAP1 BIR3
  IC50: 0.005 µM
XIAP BIR3
  IC50: 0.0299 µM
[4]; 6 days, 30 mg/kg oral daily
  Tumor volume (mm^3): 214 mm^3
[4]; 13 days, 30 mg/kg oral daily
  Tumor volume (mm^3): 282 mm^3
[4]; 20 days, 30 mg/kg oral daily
  Tumor volume (mm^3): 810 mm^3
[4]; Day 0, 30 mg/kg oral daily
  Tumor volume (mm^3): 147 mm^3
[5]; 5 days, 30 mg/kg oral daily
  Tumor volume (mm^3): 111 mm^3
[5]; 12 days, 30 mg/kg oral daily
  Tumor volume (mm^3): 86 mm^3
[5]; 20 days, 30 mg/kg oral daily
  Tumor volume (mm^3): 177 mm^3
[5]; Day 0, 30 mg/kg oral daily
  Tumor volume (mm^3): 110 mm^3
